Cytotoxicity data for 99 molecules are collected here from ChEMBL document CHEMBL3507680, “University of Dundee, Gates Library screen for HepG2 cell viability”.

Structures are written as SMILES.

The nature of this data set: Human HepG2 cell viability assay in 384 well format. It is filed as toxicity, cell-based. Also noted: dose 125 nL, time 70.5 hour; cytotoxicity at 70.5 h: concentration not given beside the values. The conditions noted are these: HepG2 cells, read-out: Inhibition.
For the molecule `CNS(=O)(=O)c1cccc(C(=O)N(C)Cc2ccsc2)c1`, the cytotoxicity at 70.5 h was -7.55%.
As to `COCCN1CCC(c2nc3c([nH]2)CC(C)(C)CNC3=O)C1` (centres undefined), the cytotoxicity at 70.5 h worked out at 10.3%.
Turning to `O=C(NCCn1nc2ccccn2c1=O)c1cc[nH]n1`, the cytotoxicity at 70.5 h was 0.216%.
`O=C(O)c1nnn(-c2ccccc2)c1-c1ccncc1`: the cytotoxicity at 70.5 h was -30.6%.
Regarding `Cc1csc(C(Cc2ccsc2)NC(=O)CN(C)Cc2cccnc2)n1` (centres undefined), the cytotoxicity at 70.5 h is -0.677%.
As for `CS(=O)(=O)N1CCC2(CC1)CN(CCn1cccn1)C(=O)CO2`, the figure is 8.7%; as for `Cc1ccc(C(=O)N2CCCn3nc(CCC(=O)O)cc3C2)cc1Cl`, -2.03%; as for `C=C(C)CNC(=O)C1CCCN(C2CCN(C(C)C)CC2)C1` (centres undefined), -2.47%.
`CC(=O)N1CCN(CCNS(=O)(=O)c2cccc(F)c2)CC1`: the cytotoxicity at 70.5 h was -0.607%.
With `c1cncc(Cc2nnc3n2CCN(CC2CCCNC2)CC3)c1` (centres undefined), the cytotoxicity at 70.5 h was -14%.
To `Cn1ncc2c1NC(=O)CC2c1ccccc1Br` (centres undefined) belongs -12.4%.
To `CN(CC(=O)Nc1cc(C(F)(F)F)c[nH]c1=O)Cc1ccccc1` belongs -11.2%; to `Cc1cnc(N2CCOC3(CCCN(CC(=O)N(C)C)C3)C2)nc1` (centres undefined), -3.5%; to `N#Cc1ccccc1C(=O)N1CCC2(CC(=O)NC2=O)C1` (centres undefined), 15.7%.
As for `COc1cc2nc(C)n(CC(=O)NCCCO)c(=O)c2cc1OC`, the figure is -10.5%.
`COCc1cncc2c1CCN(C(=O)c1ccoc1C)C2`: the cytotoxicity at 70.5 h is -2.3%.
As to `COc1ccc(OCc2nc(C(=O)NCCN3CCOCC3)co2)cc1`, the cytotoxicity at 70.5 h is -5.59%.
As for `CCC(C)NS(=O)(=O)c1ccc(/C=C\c2onc(C)c2NC(C)=O)cc1` (centres undefined), the figure is -4.12%; as for `COc1ccc(C(=O)NS(=O)(=O)c2cncc(Br)c2)cc1`, -16.9%; as for `O=C(c1cc[nH]n1)N1CCc2ncnc(NCc3ccccn3)c2CC1`, -8.31%.
To `CC(C)c1cc(C(=O)N2CCN(Cc3ccco3)CC2)n[nH]1` belongs 32.7%.
With `CCOCC1CN(Cc2csc(C)n2)Cc2nccn2C1` (centres undefined), the cytotoxicity at 70.5 h came to 3.86%.
To `CN(C)C(=O)N1CC[C@]2(O)CCN(C(=O)c3ccc(C#N)nc3)C[C@@H]2C1` belongs 3.74%; to `CCC(CO)N(Cc1ccccn1)C(=O)c1ccc(=O)[nH]c1` (centres undefined), -4.96%; to `COc1ccc(C)cc1-n1ccc(C(=O)NCC2CCCOC2)n1` (centres undefined), -11.7%.
To `CCN1CCCC1(C)c1nc(C)cc(N)n1` (centres undefined) belongs -10.7%; to `Cc1nn(C)c(C)c1NC(=O)CN1CCCC1c1noc(C2CC2)n1` (centres undefined), 8.6%; to `O=C(NCCNc1ncccn1)N1CCCC1c1ccncc1` (centres undefined), 1.65%.
To `CN(C)C1CCCN(C(=O)NCCC(=O)N2CCCCCC2)C1` (centres undefined) belongs 0.671%; to `O=C(Nc1cccc(OCc2ccc(F)cc2)c1)C1COCCO1` (centres undefined), -4.75%; to `COCCN1C[C@@H]2[C@@H](OC)CCN(Cc3ccncc3)[C@@H]2C1`, -0.354%.
With `CCN(Cc1ccc2c(c1)OCCO2)C(=O)NC(C)Cn1ccnc1` (centres undefined), the cytotoxicity at 70.5 h is -12.9%.
Consider `COc1ccccc1N1CCN(C(=O)Cn2nc(C)c(C)c2C)C(C)C1` (centres undefined), for which the cytotoxicity at 70.5 h is -3.01%.
To `CC(C(=O)NCC1(c2c(F)cccc2F)CCCC1)S(C)(=O)=O` (centres undefined) belongs -7.67%; to `CCN(CCC(F)(F)F)C(=O)Nc1cccc(N2CCOCC2)c1`, -7.71%; to `O=C(NCCc1ccc(Cl)s1)N1CCS(=O)(=O)CC1`, -3.08%.
To `Cc1ccc(CNCC2Cn3nnc(-c4cnn(C)c4)c3CO2)o1` (centres undefined) belongs 15.6%; to `O=C1CC[C@H]2[C@H](CCN2S(=O)(=O)C2CC2)N1CCN1CCCC1`, 25.5%; to `CCC1COCCN1C(=O)CNC(=O)c1ccsc1` (centres undefined), -8.2%.
Take `OC[C@@H]1CN2CCN(c3ccccn3)C[C@@H]2[C@H]1c1ccccc1`: the cytotoxicity at 70.5 h is -7.31%.
For the molecule `Cc1nn(C)cc1Cn1cc(Cl)c(N)n1`, the cytotoxicity at 70.5 h is -1.77%.
To `Cc1nc(CCCNC(=O)Nc2ccc(F)cc2F)n[nH]1` belongs -6.94%; to `Cc1ccc2c(c1)C(NCc1ncnn1C)CC2` (centres undefined), -5.24%.
Regarding `Cc1ccc(C(=O)NS(C)(=O)=O)cc1-n1cccc1`, the cytotoxicity at 70.5 h is -6.32%.
With `CCOc1ccc2c(c1)C=C(C(=O)NC(C)Cn1cccn1)CO2` (centres undefined), the cytotoxicity at 70.5 h was -5.74%.
To `CC(CO)CN(Cc1ccccc1)Cc1c[nH]cn1` (centres undefined) belongs -15.2%; to `CCN1CCOC(CNCc2ccccc2OCc2ccncc2)C1` (centres undefined), 14.2%.
With `O=C1NCCN(CC2CC2)C12CCN(Cc1ccc3c(c1)OCO3)CC2`, the cytotoxicity at 70.5 h is 41.2%.
To `CC(C)c1nc(CN(C)C(=O)CCNC(=O)c2ccccc2F)no1` belongs 19.8%.
Turning to `COCCNC(=O)[C@H]1C[C@@H]2CCN(CCc3ccccc3)C[C@H]2O1`, the cytotoxicity at 70.5 h was -11.2%.
With `CC(C)N1CCC(CNC(=O)COc2ccc(F)cc2F)C1` (centres undefined), the cytotoxicity at 70.5 h worked out at 4.12%.
To `Cn1ncc2c(N3CCS(=O)(=O)CC3)nc(C3CCCC3)nc21` belongs -6%.
To `Cc1ccsc1C(O)CNS(=O)(=O)Cc1ccc(F)cc1` (centres undefined) belongs -10.1%.
Regarding `Cc1ccoc1-c1nnc(CN2CCOC(Cn3cccn3)C2)o1` (centres undefined), the cytotoxicity at 70.5 h was -2.97%.
As to `CC(=O)Nc1nc(CN2CCCC2Cn2cccn2)cs1` (centres undefined), the cytotoxicity at 70.5 h was -6.85%.
To `Cc1csc(N2CCC(CCN3CCCC3=O)CC2)n1` belongs -14.3%.
As for `CC1CN(C)c2ccccc2CN1C(=O)c1cc(C#N)cn1C` (centres undefined), the figure is 14.8%; as for `Cc1nc2n(n1)CC(NCc1nc(-c3ccccn3)no1)CC2` (centres undefined), -5.58%; as for `CC(NC(=O)NCC1(c2ccc(F)cc2)CCCC1)c1nncn1C` (centres undefined), -3.48%.
To `Cc1ccccc1C(C)NC(=O)CN1CCN(Cc2cccs2)CC1` (centres undefined) belongs 0.186%; to `O=C(Cn1ccc2sccc2c1=O)NCc1ccc2c(c1)OCO2`, -6.54%; to `CC(C)(C)n1cc(C(=O)NCCN2CCOCC2)c2cccnc21`, 6.12%.
As for `CN1CCC(N(Cc2ccncc2)C(=O)COCC2CCCCO2)CC1` (centres undefined), the cytotoxicity at 70.5 h is -1.65%.
As for `Cc1ccc2cccc(Oc3nc(C)c(C(=O)O)s3)c2n1`, the figure is 14.9%; as for `Cc1cc(C(N)=O)ccc1NC(=O)c1nc(N2CCCCC2)ncc1Cl`, 3.51%.
As for `CCC(O)CN1CCN(C(=O)c2ccc(Cn3cccc3)cc2)CC1` (centres undefined), the figure is -11.6%; as for `COCC(C)NC(=O)c1cncc(Br)c1` (centres undefined), -0.743%; as for `CCn1cc(CN2CCCN(C(=O)c3sc(C)nc3C)CC2)cn1`, 4.77%.
To `CC(NC(=O)C1CCCC1)c1nncn1C(C)C` (centres undefined) belongs 9.12%; to `CS(=O)(=O)c1cn[nH]c1C1CCCN(C(=O)CN2CCOCC2)C1` (centres undefined), -5.31%.
In the case of `Cc1nc(Cc2ccccc2)nc2sc(C(=O)O)c(C)c12`, the cytotoxicity at 70.5 h was -5.63%.
As for `O=C(C1CC1)N1CCOC2(CCNCC2)C1`, the figure is -10.9%.
To `CCOc1cc(C(=O)N2CCN(C)CC2)cc2occc12` belongs 3.95%.
Take `CC(C)(C)OC(=O)N1CC(=O)N(CCc2ccccc2)CC(O)C1` (centres undefined): the cytotoxicity at 70.5 h is 30.2%.
Consider `O=S(=O)(Cc1ccccc1)NCC1CCCN(Cc2cccs2)C1` (centres undefined), for which the cytotoxicity at 70.5 h was -0.373%.
To `OCCN1CCN(Cc2cc3c(cc2Br)OCCO3)CC1` belongs 20.1%; to `CCC[C@@H]1CN(C(=O)c2conc2-c2ccccc2)C[C@H]1N(C)C`, 0.694%; to `Cc1cc(C)n(CC2CCCN2C(=O)c2cnc3n[nH]c(C)c3c2)n1` (centres undefined), 1.22%.
As for `Cc1nnc(NC(=O)CN(C)C2CCCN(c3cccnn3)C2)s1` (centres undefined), the figure is 1.26%; as for `c1cc(-c2c[nH]c([C@@H]3COCCN3Cc3ncc[nH]3)n2)ccn1`, 1.76%; as for `CCNC(=O)[C@@H]1C[C@H](NC(=O)c2cc(CC)n[nH]2)CN1Cc1ccsc1`, -6.78%.
To `COc1ccc(C(C)NS(=O)(=O)c2ccc3c(c2)CCC(=O)N3)cc1F` (centres undefined) belongs 12.7%; to `c1cncc(-n2cnnc2CCCN2CCOCC2)c1`, 1.35%.
For the molecule `CC(C)CN1C[C@H]2C[C@H](C(=O)Nc3cccnc3)[C@@H](C1)O2`, the cytotoxicity at 70.5 h was -4.05%.
To `Cc1oc(CNC(=O)Cc2cccc(OC(F)F)c2)cc1C(=O)O` belongs -7.31%; to `CCN(CC1CCOC1)C(=O)Nc1ccc(-n2cncn2)nc1` (centres undefined), -9.69%.
To `Cc1cc(CN2CCN(C(=O)NC(C)c3cccs3)CC2)on1` (centres undefined) belongs -5.41%; to `COc1ccccc1CC(=O)NC1CCCc2cn[nH]c21` (centres undefined), -0.577%.
As for `Cc1ccc(CNCc2cccc3cn[nH]c23)c(OC2CCOC2)c1` (centres undefined), the cytotoxicity at 70.5 h stood at 3.6%.
In the case of `CC(Oc1ccc(OCc2ncc(C(C)C)o2)cc1)C(N)=O` (centres undefined), the cytotoxicity at 70.5 h was -8.33%.
To `CCc1nnc2ccc(NCC3(N4CCCCC4)CCOCC3)nn12` belongs -7.09%.
`O=S(=O)(c1ccc(-c2cnco2)cc1)N1CCC2(CCCNC2)C1` (centres undefined): the cytotoxicity at 70.5 h was -1.83%.
As for `CCNC(=O)[C@@H]1C[C@@H](NC(=O)Cc2ccncc2)CN1Cc1ccsc1`, the figure is -1.57%.
For the molecule `CC(=O)N1CCN(c2ccccc2CNc2cc(F)cc(F)c2)CC1`, the cytotoxicity at 70.5 h is 13.8%.
For the molecule `CC(SCC(=O)N(C)CC(=O)NC1CC1)c1ccc(F)c(F)c1` (centres undefined), the cytotoxicity at 70.5 h was -10.3%.
As for `Cc1cc2n(n1)CC(CNC1CCN(C(=O)C3CC3)CC1)CN2` (centres undefined), the figure is 16.7%.
As to `Cc1ccc(N2CC[C@@]3(O)CCN(S(C)(=O)=O)C[C@H]3C2)nn1`, the cytotoxicity at 70.5 h worked out at 6.8%.
Consider `COC(=O)CC(c1ccc(O)c(Cl)c1)c1oc(C)cc(=O)c1O` (centres undefined), for which the cytotoxicity at 70.5 h stood at 1.45%.
As for `O=C(O)c1cc(/C=C/c2ccccc2)ncn1`, the cytotoxicity at 70.5 h is -5.54%.
